Test [1] concerns Zucker (fa/fa) rat hemidiaphragm muscle. Briefly: In vitro glycogen synthesis (glucose incorporation into glycogen) in hemidiaphragm muscle with exogenous insulin. Set-up: key to Activity: insulin-potentiating: improved activity compared to insulin alone; inactive: equal activity compared to insulin alone; insulin antagonist: reduced activity compared to insulin alone; *-**: increasing insulin-potentiating activity. Conditions: for insulin-potentiating activity on in vitro glycogen synthesis (in words): with 1 mU/ml exogenous insulin. Type of test: cell-based. As to the method: In vitro insulin-potentiating effects of the synthetic peptide analogues were assessed by measuring the rates of exogenous glucose incorporation into glycogen in rat hemidiaphragms (Lim et al, 1992). Hemidiaphragms from overnight-fasted Zucker fatty(fa/fa) female rats were dissected, and divided into segments of approximate 35-50 mg each. Tissues from the same rat were used for all groups. The tissue was incubated in 2 ml of Krebs-Ringer bicarbonate (KRB) buffer (pH 7.4) containing [^14C]glucose (5.5 mM, final specific activity 0.05 mCi/mmol) under an atmosphere of 95% 02-5% CO2 at 37° C. for 1.5 hr. After incubation, tissues were removed, washed with cold buffer and blotted. Tissues were digested, the muscle glycogen was precipitated and the ^14C-radioactivity was counted in a Wallac 1410 liquid scintillation counter. The biological activity of peptide analogues was measured as the rate of mmol glucose incorporation into muscle glycogen/g tissue/hr.
The sensitivity of hemidiaphragm muscle tissue to insulin (0.1-100 mU/ml) on glycogen synthesis was first analyzed. The dose response curves for peptide analogues on the insulin-potentiating effect to glycogen synthesis were then measured using cumulative increasing concentrations (10^−3 10 μmol/ml) of peptides in the presence of insulin (1 mU/ml). The biological activity of each peptide analogue was measured as the rate of glucose incorporation into muscle glycogen (μmol/g tissue/hr), and represented by the mean±SEM from eight determinations.
To determine the insulin-potentiating effect of the peptide analogues, the rates of incorporation of glucose into muscle glycogen were measured. The rates of glycogen synthesis (μmol/g tissue/hr) were 0.52±0.05, 0.60±0.04, 1.27±0.06 and 1.52±0.07 inresponse to 0.33, 1, 3.33 and 10 mU/ml insulin respectively, as shown in FIG. 1.
The insulin-potentiating effect of the peptide analogues was then observed by studying their dose response. curves for glucose incorporation into glycogen in the presence of 1 mU/ml exogenous insulin. The effects of peptides 1, 3, 4, 6, 7, 8 and 10 were evident at doses higher than 0.01 μmol/ml, and continued to increase with increasing peptide concentration to 1 μmol/ml, as shown in FIGS. 2A and 2B.
The activity of each analogue was assessed by in vitro measurement of glycogen synthesis in muscle, as described above.

The test system of a further test is normal male Wistar rats. Briefly: Intravenous insulin tolerance test (IVITT). Conditions: 5 μmol/kg i.v.; for insulin-potentiating effect on decreasing blood glucose in IVITT (in words): from 30 min after commencement; for Reduction in Blood Glucose: 0.1 U insulin/kg. Type of test: in vivo, rat. The protocol: IVITTs (0.1 U insulin/kg body weight) were performed on overnight-fasted Wistar male rats as previously described (Lim et al, 1992). Blood samples were taken for glucose estimation at 15, 30, 45, 60 min after the commencement of the tests. Six animals in each group were used.
IVITTs were performed on normal male Wistar rats after a single intravenous (i.v.) injection of the hGH peptide analogues at a dose of 5 μmol/kg body weight. The insulin-potentiating effects of peptides 6, 7, 8 and 10 on decreasing blood glucose levels of treated animals became significant since 30 min after the commencement of the test. Bioactivity was retained when the Arg^8 or Phe^10 residue of Asu^11-hGH(6-13) peptide was substituted with Lys or Tyr respectively (1.92±0.17 or 1.62±0.18 vs. 1.65±0.12 mmol/L at 45 min), as shown in Table 3. However, no insulin-potentiating effect was observed when either Arg^8 or Phe^10 was substituted by Gly (0.92±0.08 or 1.08±0.08 mmol/L respectively vs. 1.00±0.10 mmol/L of control at 45 min). Asu^11-hGH(8-13) also elicited this insulin-potentiating effect, but with lower potency.

For test [2], the system named is Zucker fatty (fa/fa) rats. In words: Basal blood glucose determination after i.p. peptide. The class given is in vivo, rat. Conditions: 10 μmol/kg body weight i.p., over 150 min, vs saline. As to the method: Overnight-fasted Zucker fatty(fa/fa) female rats were anaesthetized with sodium pentobarbitone (60 mg/kg body weight). After 45 min, basal blood glucose samples were taken from the tail vein, followed immediately by intraperitoneal (i.p.) injection of saline (control) or the peptide analogue (test, 10 μmol/kg body weight) in 0.4 ml of saline. Blood samples were taken at 15, 30, 60, 90, 120, 150 minutes after injection, and the blood glucose level in each sample was measured immediately by the glucose oxidase method, using a YSI Model-2300 STAT glucose analyzer (Yellow Spring, Ohio). Six animals for each group were used.
The reduction of basal blood glucose levels in animals by different peptide analogues administered intraperitoneally (i.p.)at a dose of 10 μmol/kg body weight was measured for over 150 min.

Setting [3] is: Table 5, compared to insulin alone.
[4] abbreviates: Table 6 (corrected), summary of Table 5.

Square brackets hold non-standard residues; d marks the D form. Ends that are not written are not given here. Cha = N[C@@H](CC1CCCCC1)C(=O)O; Orn = NCCC[C@H](N)C(=O)O; βAla = NCCC(=O)O

Regarding “Arg-Gly-Phe-Ala-NH2 (RGFA-NH2) [Peptide 15]”, the result in test [1] (setting [3]) and in test [1] (setting [4]) was inactive.
For the substance “Leu-Ser-Lys-Leu-Phe-Asu-Asn-Ala (LSKLFDNA-NH2; not fully specified; printed as Leu-Ser-Lys-Leu-Phe-Asu-Asn-Ala) [Peptide 8]”, the “insulin-potentiating activity on in vitro glycogen synthesis (in words)” value (shortened to “insulin-potentiating activity”) in test [1] was “active”. In the test with normal male Wistar rats, the “insulin-potentiating effect on decreasing blood glucose in IVITT (in words)” value was “significant”. In addition, the “Reduction in Blood Glucose” value in the test with normal male Wistar rats (15 min) worked out at 1.08 ± 0.10 mmol/L; in the test with normal male Wistar rats (30 min), 1.35 ± 0.14 mmol/L; with normal male Wistar rats (45 min), 1.92 ± 0.17 mmol/L; in the test with normal male Wistar rats (60 min) it was 1.78 ± 0.17 mmol/L.
[Orn]GFF [Peptide 17]: the result in test [1] (setting [3]) was inactive. Moreover, the “insulin-potentiating activity” value in test [1] is given as “loss of activity”.
In the case of “Arg-Gly-Phe-Tyr-NH2 (RGFY-NH2) [Peptide 21]”, the outcome in test [1] (setting [3]) and in test [1] (setting [4]) was inactive.
Turning to “Arg-Leu-Phe-Asp-Asn-Ala (RLFDNA-NH2) [Peptide 5]”, the outcome in test [1] (setting [3]) was inactive. For the same substance, the “insulin-potentiating activity” value in test [1] is on record as “abolished”. The “hypoglycaemic effect (reduction of basal blood glucose level)” value in test [2] is recorded as “no hypoglycaemic effect”. Moreover, the “insulin-potentiating effect on decreasing blood glucose in IVITT (in words)” value is listed as “no such effect” in the test with normal male Wistar rats (listed as Asn^11-hGH(8-13)) and “no activity” in the test on normal male Wistar rats (listed as linear hGH(8-13)). Besides, the “Reduction in Blood Glucose” value in the test on normal male Wistar rats (15 min) is on record as 0.90 ± 0.09 mmol/L; in the test with normal male Wistar rats (30 min) it was 1.01 ± 0.11 mmol/L; in the test with normal male Wistar rats (45 min) it was 1.07 ± 0.15 mmol/L; in the test on normal male Wistar rats (60 min) it was 1.06 ± 0.12 mmol/L.
For the substance “Leu-Ser-Gly-Leu-Phe-Asu-Asn-Ala (LSGLFDNA-NH2; not fully specified; printed as Leu-Ser-Gly-Leu-Phe-Asu-Asn-Ala) [Peptide 9]”, the outcome in test [1] (setting [3]) was inactive. The “Reduction in Blood Glucose” value with normal male Wistar rats (15 min) amounted to 0.87 ± 0.12 mmol/L; with normal male Wistar rats (30 min), 0.80 ± 0.14 mmol/L; with normal male Wistar rats (45 min), 0.88 ± 0.15 mmol/L; with normal male Wistar rats (60 min), 0.74 ± 0.16 mmol/L.
Regarding “Leu-Ser-Arg-Leu-Tyr-Asu-Asn-Ala (LSRLYDNA-NH2; not fully specified; printed as Leu-Ser-Arg-Leu-Tyr-Asu-Asn-Ala) [Peptide 10]”, in the test on normal male Wistar rats, the “insulin-potentiating effect on decreasing blood glucose in IVITT (in words)” value is recorded as “significant”. Also, the “Reduction in Blood Glucose” value is reported as 1.03 ± 0.10 mmol/L with normal male Wistar rats (15 min), 1.52 ± 0.12 mmol/L in the test on normal male Wistar rats (30 min), 1.62 ± 0.18 mmol/L in the test on normal male Wistar rats (45 min) and 1.60 ± 0.34 mmol/L in the test with normal male Wistar rats (60 min).
For RG[Cha]F-NH2 [Peptide 20], the Activity entry in test [1] (setting [4]) is “antagonist”.
The same measure, in the same setting: to “Arg-Gly-Tyr-Phe-NH2 (RGYF-NH2) [Peptide 19]” belongs “active”.
With Lys-Gly-Phe-Phe (KGFF-NH2) [Peptide 16], in test [1] (setting [3]), the result was inactive. Moreover, the “insulin-potentiating activity” value in test [1] is “loss of activity”.
For the substance “Arg-D-Ala-Tyr-Phe-NH2 (R[dA]YF-NH2; N-terminus assumed; SMILES C[C@@H](NC(=O)[C@@H](N)CCCNC(=N)N)C(=O)N[C@@H](Cc1ccc(O)cc1)C(=O)N[C@@H](Cc1ccccc1)C(N)=O) [Peptide 24]”, in test [1] (setting [4]), the outcome was active.
In the case of “Leu-Ser-Arg-Leu-Gly-Asu-Asn-Ala (LSRLGDNA-NH2; not fully specified; printed as Leu-Ser-Arg-Leu-Gly-Asu-Asn-Ala) [Peptide 11]”, in test [1] (setting [3]), the result was inactive. Further, the “Reduction in Blood Glucose” value in the test with normal male Wistar rats (15 min) was determined as 0.68 ± 0.05 mmol/L; with normal male Wistar rats (30 min) it was 0.96 ± 0.06 mmol/L; in the test on normal male Wistar rats (45 min), 1.08 ± 0.08 mmol/L; with normal male Wistar rats (60 min) it was 1.12 ± 0.06 mmol/L.
In the case of “Arg-β-Ala-Phe-Phe (R[βAla]FF; not fully specified (C-terminus); printed as Arg-β-Ala-Phe-Phe) [Peptide 18]”, the outcome in test [1] (setting [4]) was active.
Regarding “Arg-D-Ala-Phe-Tyr-NH2 (R[dA]FY-NH2; N-terminus assumed; SMILES C[C@@H](NC(=O)[C@@H](N)CCCNC(=N)N)C(=O)N[C@@H](Cc1ccccc1)C(=O)N[C@@H](Cc1ccc(O)cc1)C(N)=O) [Peptide 22]”, in test [1] (setting [4]), the result was active.
For “Arg-Gly-Phe-Phe-NH2 (RGFF-NH2) [Peptide 1]”, the outcome in test [1] (setting [4]) was active. Besides, the “insulin-potentiating activity” value in test [1] is listed as “stimulated glycogen synthesis”. Further, the “hypoglycaemic effect (reduction of basal blood glucose level)” value in test [2] (listed as Arg-Gly-Phe-Phe) is “reduced basal blood glucose levels”; in test [2] (listed as peptide 1) it was “significant hypoglycaemic effects”.
Regarding Ala-Gly-Phe-Phe (AGFF-NH2) [Peptide 12], the outcome in test [1] (setting [3]) was inactive.
Turning to “Arg-Gly-Phe-Cha-NH2 (RGF[Cha]-NH2; N-terminus assumed; SMILES N=C(N)NCCC[C@H](N)C(=O)NCC(=O)N[C@@H](Cc1ccccc1)C(=O)N[C@@H](CC1CCCCC1)C(N)=O) [Peptide 2]”, in test [1] (setting [4]), the Activity result is listed as “antagonist”. Further, the results for the “hypoglycaemic effect (reduction of basal blood glucose level)” value in test [2] (listed as Arg-Gly-Phe-Cha) and in test [2] (listed as peptide 2) were “no hypoglycaemic effect” and “significant hypoglycaemic effects”, respectively.
As for “Arg-D-Ala-Phe-Tyr-me-NH2 (R[dA]FY-NH2; also: 'me' (methyl) after Tyr, site not settled) [Peptide 23]”, the result in test [1] (setting [4]) was active.
On to “Arg-Ala-Phe-Phe-NH2 (RAFF-NH2) [Peptide 13]”, for which the outcome in test [1] (setting [3]) and in test [1] (setting [4]) was inactive.
As for “Arg-Leu-Phe-Phe-NH2 (RLFF-NH2) [Peptide 4]”, the result in test [1] (setting [4]) was active.
Regarding “insulin: exogenous insulin tested alone on hemidiaphragm glycogen synthesis (FIG. 1)”, the “rate of glycogen synthesis” value in test [1] (0.33 mU/ml insulin alone) came to 0.52±0.05 μmol/g tissue/hr; in test [1] (1 mU/ml insulin alone) it was 0.60±0.04 μmol/g tissue/hr; in test [1] (3.33 mU/ml insulin alone), 1.27±0.06 μmol/g tissue/hr; in test [1] (10 mU/ml insulin alone), 1.52±0.07 μmol/g tissue/hr.
Regarding “Arg-Gly-Ala-Phe-NH2 (RGAF-NH2) [Peptide 14]”, the result in test [1] (setting [3]) and in test [1] (setting [4]) was inactive.

These data come from patent publication US20040054130A1, “Insulin potentiating peptides” (priority 2000, published 2004).
